Data: PMC7377239, “Cardiovascular Effects of Polychlorinated Biphenyls and Their Major Metabolites” (Environmental Health Perspectives, 2020)
Where two headings read alike, the source gives them in different places.

Columns and labels:
[1] = test system: iCell cardiomyocytes (human iPSC-derived cardiomyocytes); test: High-content imaging of cytotoxicity and mitochondrial integrity in iPSC-CMs; format: cell-based; conditions: Homo sapiens; for viability at 0.01 µM / activity at 0.01 µM / viability at 0.1 µM / activity at 0.1 µM / viability at 1 µM / activity at 1 µM / viability at 10 µM / activity at 10 µM / viability at 100 µM / activity at 100 µM: Cardiomyocyte, 0.00 µM = 100.00; for viability at 0.1 µM / activity at 0.1 µM: 0.10 µM; for minimal effective concentration: iPSC-CM
In short: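 Human iPSC-derived cardiomyocytes were seeded on gelatin-coated 384-well plates at 5,000 cells per well and maintained for 12 d. Test chemicals were added as 10μL of 5× solutions to final concentrations of 0.01 to 100μM. Cells were stained with Hoechst 33342 and MitoTracker™ Orange, fixed in formaldehyde, and imaged by confocal high-content microscopy at 10× magnification.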

HUVECs = test: High-content imaging cytotoxicity in HUVECs, 24 h; format: cell-based, human; conditions: Homo sapiens, HUVEC, 24 h, HUVECs; for viability at 0.01 µM / activity at 0.01 µM / viability at 0.1 µM / activity at 0.1 µM / viability at 1 µM / activity at 1 µM / viability at 10 µM / activity at 10 µM / viability at 100 µM / activity at 100 µM: 0.00 µM = 100.00; for viability at 0.1 µM / activity at 0.1 µM: 0.10 µM; for minimal effective concentration: top concentration 100.00 µM
In short: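 HUVECs (passages 1–5) were plated at 750 cells/well without fibronectin, grown to a monolayer (3–5 d) and exposed to compounds for 24 h at 37°C, 5% CO2. Hoechst 33342, MitoTracker Orange and calcein AM staining was imaged at 10×; readouts were normalized to 0.5% DMSO vehicle and fit to a four-parameter logistic model.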

[2] = 24 hr, read-out: huvec.cyto.24hr
[3] = 24 hr, read-out: huvec.mito.24hr
[4] = 24 hr, read-out: huvec.mitoint.24hr
[5] = 24 hr, read-out: huvec.nma.24hr
[6] = 24 hrs, read-out: huvec.tc.24hrs

Question: For Oc1cccc(-c2ccc(Cl)cc2)c1 [3'-OH PCB3], which viability at 0.01 µM ([1]; 1.5 h, read-out: cm.cam.90min) is on record?
Answer: 101%

Question: And the activity at 0.01 µM ([1]; 1.5 h, read-out: cm.mii.90min)?
Answer: 109%

Question: And the activity at 0.01 µM ([1]; 1.5 h, read-out: cm.mito.90min)?
Answer: 101%

Question: What about the viability at 0.01 µM ([1]; 1.5 h, read-out: cm.tc.90min) of the same compound?
Answer: 101%

Question: What about the viability at 0.1 µM ([1]; 1.5 h, read-out: cm.cam.90min) of the same compound?
Answer: 96.5%

Question: And the activity at 0.1 µM ([1]; 1.5 h, read-out: cm.mii.90min)?
Answer: 107%

Question: What about the activity at 0.1 µM ([1]; 1.5 h, read-out: cm.mito.90min) of the same compound?
Answer: 96.4%

Question: What about the viability at 0.1 µM ([1]; 1.5 h, read-out: cm.tc.90min) of the same compound?
Answer: 96.6%

Question: And the viability at 1 µM ([1]; 1.5 h, read-out: cm.cam.90min)?
Answer: 103%

Question: And the activity at 1 µM ([1]; 1.5 h, read-out: cm.mii.90min)?
Answer: 98.4%

Question: And the activity at 1 µM ([1]; 1.5 h, read-out: cm.mito.90min)?
Answer: 103%

Question: And the viability at 1 µM ([1]; 1.5 h, read-out: cm.tc.90min)?
Answer: 103%

Question: And the viability at 10 µM ([1]; 1.5 h, read-out: cm.cam.90min)?
Answer: 99.4%

Question: What about the activity at 10 µM ([1]; 1.5 h, read-out: cm.mii.90min) of the same compound?
Answer: 106%

Question: And the activity at 10 µM ([1]; 1.5 h, read-out: cm.mito.90min)?
Answer: 99.2%

Question: And the viability at 10 µM ([1]; 1.5 h, read-out: cm.tc.90min)?
Answer: 99.2%

Question: And the viability at 100 µM ([1]; 1.5 h, read-out: cm.cam.90min)?
Answer: 0%

Question: And the activity at 100 µM ([1]; 1.5 h, read-out: cm.mii.90min)?
Answer: 0%

Question: And the activity at 100 µM ([1]; 1.5 h, read-out: cm.mito.90min)?
Answer: 0%

Question: And the viability at 100 µM ([1]; 1.5 h, read-out: cm.tc.90min)?
Answer: 0%

Question: What about the viability at 0.01 µM ([1]; 24 h, read-out: cm.cam.24hrs) of the same compound?
Answer: 91.7%

Question: And the activity at 0.01 µM ([1]; 24 h, read-out: cm.mii.24hrs)?
Answer: 99.6%

Question: What about the activity at 0.01 µM ([1]; 24 h, read-out: cm.mito.24hrs) of the same compound?
Answer: 88.3%

Question: What about the viability at 0.01 µM ([1]; 24 h, read-out: cm.tc.24hrs) of the same compound?
Answer: 91.6%

Question: What about the viability at 0.1 µM ([1]; 24 h, read-out: cm.cam.24hrs) of the same compound?
Answer: 99.1%

Question: What about the activity at 0.1 µM ([1]; 24 h, read-out: cm.mii.24hrs) of the same compound?
Answer: 109%

Question: What about the activity at 0.1 µM ([1]; 24 h, read-out: cm.mito.24hrs) of the same compound?
Answer: 97.5%

Question: What about the viability at 0.1 µM ([1]; 24 h, read-out: cm.tc.24hrs) of the same compound?
Answer: 98.9%

Question: And the viability at 1 µM ([1]; 24 h, read-out: cm.cam.24hrs)?
Answer: 104%

Question: And the activity at 1 µM ([1]; 24 h, read-out: cm.mii.24hrs)?
Answer: 92.4%

Question: What about the activity at 1 µM ([1]; 24 h, read-out: cm.mito.24hrs) of the same compound?
Answer: 101%

Question: What about the viability at 1 µM ([1]; 24 h, read-out: cm.tc.24hrs) of the same compound?
Answer: 104%

Question: What about the viability at 10 µM ([1]; 24 h, read-out: cm.cam.24hrs) of the same compound?
Answer: 98%

Question: And the activity at 10 µM ([1]; 24 h, read-out: cm.mii.24hrs)?
Answer: 98.8%

Question: What about the activity at 10 µM ([1]; 24 h, read-out: cm.mito.24hrs) of the same compound?
Answer: 97.5%

Question: What about the viability at 10 µM ([1]; 24 h, read-out: cm.tc.24hrs) of the same compound?
Answer: 98.6%

Question: What about the viability at 100 µM ([1]; 24 h, read-out: cm.cam.24hrs) of the same compound?
Answer: 0.0471%

Question: What about the activity at 100 µM ([1]; 24 h, read-out: cm.mii.24hrs) of the same compound?
Answer: 0%

Question: What about the activity at 100 µM ([1]; 24 h, read-out: cm.mito.24hrs) of the same compound?
Answer: 0%

Question: What about the viability at 100 µM ([1]; 24 h, read-out: cm.tc.24hrs) of the same compound?
Answer: 0.09%

Question: And the minimal effective concentration ([1]; 1.5 h, read-out: cm.cam.90min POD)?
Answer: 16 µM

Question: What about the minimal effective concentration ([1]; 1.5 h, read-out: cm.mii.90min POD) of the same compound?
Answer: 35 µM

Question: And the minimal effective concentration ([1]; 1.5 h, read-out: cm.mito.90min POD)?
Answer: 15 µM

Question: And the minimal effective concentration ([1]; 1.5 h, read-out: cm.tc.90min POD)?
Answer: 14.8 µM

Question: What about the minimal effective concentration ([1]; 24 h, read-out: cm.cam.24hrs POD) of the same compound?
Answer: 14.1 µM

Question: And the minimal effective concentration ([1]; 24 h, read-out: cm.mii.24hrs POD)?
Answer: 23 µM

Question: And the minimal effective concentration ([1]; 24 h, read-out: cm.mito.24hrs POD)?
Answer: 14 µM

Question: What about the minimal effective concentration ([1]; 24 h, read-out: cm.tc.24hrs POD) of the same compound?
Answer: 15.6 µM

Question: And the viability at 0.01 µM (HUVECs; [2])?
Answer: 89.2%

Question: What about the activity at 0.01 µM (HUVECs; [3]) of the same compound?
Answer: 89.3%

Question: What about the activity at 0.01 µM (HUVECs; [4]) of the same compound?
Answer: 101%

Question: What about the activity at 0.01 µM (HUVECs; [5]) of the same compound?
Answer: 97.3%

Question: What about the viability at 0.1 µM (HUVECs; [2]) of the same compound?
Answer: 100%

Question: What about the activity at 0.1 µM (HUVECs; [3]) of the same compound?
Answer: 100%

Question: And the activity at 0.1 µM (HUVECs; [4])?
Answer: 111%

Question: And the activity at 0.1 µM (HUVECs; [5])?
Answer: 92.6%

Question: And the viability at 1 µM (HUVECs; [2])?
Answer: 94.4%

Question: And the activity at 1 µM (HUVECs; [3])?
Answer: 93.7%

Question: And the activity at 1 µM (HUVECs; [4])?
Answer: 104%

Question: What about the activity at 1 µM (HUVECs; [5]) of the same compound?
Answer: 92%

Question: What about the viability at 10 µM (HUVECs; [2]) of the same compound?
Answer: 70.9%

Question: And the activity at 10 µM (HUVECs; [3])?
Answer: 66.2%

Question: What about the activity at 10 µM (HUVECs; [4]) of the same compound?
Answer: 108%

Question: And the activity at 10 µM (HUVECs; [5])?
Answer: 84.9%

Question: What about the viability at 100 µM (HUVECs; [2]) of the same compound?
Answer: 63.7%

Question: What about the activity at 100 µM (HUVECs; [3]) of the same compound?
Answer: 77.8%

Question: What about the activity at 100 µM (HUVECs; [4]) of the same compound?
Answer: 19.3%

Question: What about the activity at 100 µM (HUVECs; [5]) of the same compound?
Answer: 68.8%

Question: What about the minimal effective concentration (HUVECs; 24 hr, read-out: huvec.cyto.24hr POD) of the same compound?
Answer: 1.1 µM

Question: And the minimal effective concentration (HUVECs; 24 hr, read-out: huvec.mito.24hr POD)?
Answer: 0.97 µM

Question: And the minimal effective concentration (HUVECs; 24 hr, read-out: huvec.mitoint.24hr POD)?
Answer: 41.4 µM

Question: And the minimal effective concentration (HUVECs; 24 hr, read-out: huvec.nma.24hr POD)?
Answer: 0.04 µM

Question: And the viability at 0.01 µM (HUVECs; [6])?
Answer: 89.2%

Question: And the viability at 0.1 µM (HUVECs; [6])?
Answer: 100%

Question: What about the viability at 1 µM (HUVECs; [6]) of the same compound?
Answer: 94.6%

Question: And the viability at 10 µM (HUVECs; [6])?
Answer: 71%

Question: What about the viability at 100 µM (HUVECs; [6]) of the same compound?
Answer: 83.9%

Question: What about the minimal effective concentration (HUVECs; 24 hrs, read-out: huvec.tc.24hrs POD) of the same compound?
Answer: 1.1 µM
